Experimental data published in PMC9736855, “Discovery of 3-Amino-1H-pyrazole-Based Kinase Inhibitors to Illuminate the Understudied PCTAIRE Family” (International Journal of Molecular Sciences, 2022).

Assays:
GSK3B [1] = target: T1, GSK3B (Homo sapiens, UniProt P49841); assay: DSF; type: binding; parameters: purchased in-house DSF panel (SGC Frankfurt); details: 10 μM compound
From the text: (§1) To investigate the selectivity profile of the different series, a differential scanning fluorimetry (DSF) assay was used. This assay offers a rapid and sensitive screening method that determines the denaturation temperature of a protein in absence and presence of a compound. This assay format measures the fluorescence of a dye, which depends on the folding state of the protein. The difference between the melting temperature (ΔTm) in the absence and presence of the compound represents the binding strength to the protein.
(§2) Measurements were performed in duplicates.
Target sequence in this assay (P49841 35-386): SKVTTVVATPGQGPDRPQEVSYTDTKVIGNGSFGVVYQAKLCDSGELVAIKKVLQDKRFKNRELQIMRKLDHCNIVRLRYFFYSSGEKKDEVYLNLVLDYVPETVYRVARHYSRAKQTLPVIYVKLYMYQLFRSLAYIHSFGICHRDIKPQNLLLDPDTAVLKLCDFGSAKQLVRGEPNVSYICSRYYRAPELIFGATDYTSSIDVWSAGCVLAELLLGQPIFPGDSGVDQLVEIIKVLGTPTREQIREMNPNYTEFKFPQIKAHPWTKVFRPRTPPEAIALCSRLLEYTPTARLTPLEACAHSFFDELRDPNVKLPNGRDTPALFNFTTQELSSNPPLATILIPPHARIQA

CDK16 and GSK3 = assay: proteome-wide CETSA MS; type: cell-based; details: K562 cells, 30 µM, 60 min
Method: To verify whether the substances also lead to stabilization of proteins in the cellular system, proteome-wide CETSA experiments were performed. Therefore, lead structure 1 and some compounds from the second series (21b, 21d, 21e, 21h, and 21i) were selected for this study (Figure 6, Figure S1). While the statistical significance is plotted on the Y-axis, the relative protein amount is shown on the X-axis. […] Based on excellent proteome-wide selectivity identifying CDK16 and GSK3 as the most prominently stabilized kinases, 21d and 21i were selected for further investigations. […] We therefore decided to proceed with a CDK16-specific cellular assay.
Compressed CETSA MS assays, also known as PISA (Proteome Integral Stability Alteration assay), were performed as previously described by Chernobrovkin et. al., with some minor changes. K562 cells were obtained from ATCC. K562 cells were mixed with an equal volume of compound solution, final concentartion of 30 µM, in a buffer (20 mM HEPES, 138 mM NaCl, 5 mM KCl, 2 mM CaCl2, 1 mM MgCl2, pH 7.4). One percent and DMSO was used as a control. Cells were incubated at +37 °C for 60 min. The cell suspension was split into 12 aliquots which were heated at a different temperature between 44 and 66 °C for 3 min. After the heating, the cells were lysed through freeze–thawing them 3 times and the lysed aliquots were pooled together. Cell debris and aggregates were removed through centrifugation (20 min at 30.000× g).

CDK16 = target: T2, CDK16 (Homo sapiens, UniProt Q00536); assay: DSF; type: binding; details: 10 μM compound
T2 construct: purchased in-house DSF panel (SGC Frankfurt)
T2 sequence (Q00536 163-478): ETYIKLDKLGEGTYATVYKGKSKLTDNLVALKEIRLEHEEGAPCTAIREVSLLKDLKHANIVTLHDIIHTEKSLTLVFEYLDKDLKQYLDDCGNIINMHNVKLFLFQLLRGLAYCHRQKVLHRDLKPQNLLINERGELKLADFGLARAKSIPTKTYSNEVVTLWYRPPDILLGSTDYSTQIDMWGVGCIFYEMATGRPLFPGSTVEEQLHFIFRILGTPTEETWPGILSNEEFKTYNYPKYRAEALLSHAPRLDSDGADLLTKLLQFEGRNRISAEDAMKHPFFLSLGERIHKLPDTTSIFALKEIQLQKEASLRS
From the text: as §1, §2

CDK2 [2] = target: T3, CDK2 (Homo sapiens, UniProt P24941); assay: DSF; type: binding; details: 10 μM compound
T3 construct: purchased in-house DSF panel (SGC Frankfurt)
From the text: as §1, §2

CDK16/Cyclin Y = target: T4, CDK16/Cyclin Y (Homo sapiens, UniProt Q00536); assay: NanoBRET; type: cell-based; details: Figure 7, 11-point dose-response in duplicates; read-out: NanoBRET EC50 ± SEM against CDK16
T4 construct: Full-length kinases were obtained as plasmids cloned in frame with a terminal NanoLuc-fusion; CS1810C178 (CCNY); host or cells: HEK293T
T4 sequence (Q00536 whole entry, the tested form may be a part): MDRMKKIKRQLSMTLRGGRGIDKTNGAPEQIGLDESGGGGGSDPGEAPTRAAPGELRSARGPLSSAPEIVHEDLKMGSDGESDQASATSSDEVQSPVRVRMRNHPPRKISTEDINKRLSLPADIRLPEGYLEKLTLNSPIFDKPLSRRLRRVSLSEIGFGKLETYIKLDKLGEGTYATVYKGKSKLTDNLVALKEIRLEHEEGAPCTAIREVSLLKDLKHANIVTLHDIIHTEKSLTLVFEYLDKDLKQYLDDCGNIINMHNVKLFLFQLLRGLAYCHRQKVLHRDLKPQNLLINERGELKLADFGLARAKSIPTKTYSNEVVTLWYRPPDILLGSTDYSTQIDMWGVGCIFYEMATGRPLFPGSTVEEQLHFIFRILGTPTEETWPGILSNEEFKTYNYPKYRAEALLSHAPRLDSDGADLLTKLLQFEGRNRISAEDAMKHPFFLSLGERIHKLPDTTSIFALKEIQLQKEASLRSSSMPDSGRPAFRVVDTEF
T4 sequence (Q8ND76 2-341 partner limits assumed): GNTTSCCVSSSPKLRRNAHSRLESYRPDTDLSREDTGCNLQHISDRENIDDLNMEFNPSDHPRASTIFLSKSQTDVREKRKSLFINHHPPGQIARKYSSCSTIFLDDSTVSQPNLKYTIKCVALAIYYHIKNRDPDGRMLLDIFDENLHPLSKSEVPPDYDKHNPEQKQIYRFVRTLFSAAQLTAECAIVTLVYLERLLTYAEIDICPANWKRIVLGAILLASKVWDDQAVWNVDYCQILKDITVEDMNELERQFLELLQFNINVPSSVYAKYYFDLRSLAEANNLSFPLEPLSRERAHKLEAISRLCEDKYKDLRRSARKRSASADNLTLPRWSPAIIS
Method: Next, to specifically quantify the outcome of the cellular activity of the compounds, a NanoBRET cellular target engagement assay was performed. The determination of the cellular potency on CDK16 correlated well with the corresponding DSF assay data (Figure S2). […] As mentioned before, the exchange from a methyl ester to an iso-propyl or tert-butyl ester led to a higher stabilization of the kinase in the DSF assay, which correlated with an increase in cellular potency as determined in the NanoBRET assay. […] The number of potential off-targets was low with 1 and 2 kinases with ΔTm >5 °C (Figure 4), highlighting these inhibitors for more comprehensive selectivity studied within the CDK and particular the TAIRE subfamily.
(§3) The assay was performed as described previously. In brief: Full-length kinases were obtained as plasmids cloned in frame with a terminal NanoLuc-fusion (Promega, Madison, WI, USA), as specified in table (Table S6). Plasmids were transfected into HEK293T cells using FuGENE HD (Promega, E2312) and proteins were allowed to express for 20h. Serially diluted inhibitor and NanoBRET Kinase Tracer (Promega) at a concentration determined previously as the KD,app (Table S5) were pipetted into white 384-well plates (Greiner 781207) using an Echo acoustic dispenser (Labcyte, San Jose, CA, USA). The corresponding protein-transfected cells were added and reseeded at a density of 2.5 × 10^5 cells/mL after trypsinization and resuspending in Opti-MEM without phenol red (Life Technologies, Carlsbad, CA, USA). The system was allowed to equilibrate for 2 h at 37 °C/5% CO2 prior to BRET measurements. To measure BRET, NanoBRET NanoGlo Substrate + Extracellular NanoLuc Inhibitor (Promega, N2540) was added as per the manufacturer’s protocol, and filtered luminescence was measured on a PHERAstar plate reader (BMG Labtech, Ortenberg, Germany) equipped with a luminescence filter pair (450 nm BP filter (donor) and 610 nm LP filter (acceptor)). Competitive displacement data were then graphed using GraphPad Prism 9 software using a normalized 3-parameter curve fit with the following equation: Y = 100/(1 + 10^(X–LogEC50)).

[3] = test system: in-house panel of 89–105 kinases; assay: DSF selectivity screen; type: binding; details: number of kinases of the DSF panel
From the text: To investigate the selectivity profile of the different series, a differential scanning fluorimetry (DSF) assay was used. This assay offers a rapid and sensitive screening method that determines the denaturation temperature of a protein in absence and presence of a compound. This assay format measures the fluorescence of a dye, which depends on the folding state of the protein. The difference between the melting temperature (ΔTm) in the absence and presence of the compound represents the binding strength to the protein. We used an in-house panel of 89–105 kinases to screen all synthesized inhibitors (Tables S1–S3).
as §2

GSK3B [4] = target: T1, GSK3B; assay: NanoBRET; type: cell-based; parameters: Full-length kinases were obtained as plasmids cloned in frame with a terminal NanoLuc-fusion; host or cells: HEK293T
Method: as §3, with “Competitive displacement data were then graphed using GraphPad Prism 9 software using a normalized 3-parameter curve fit with the following equation: Y = 100/(1 + 10^(X–LogEC50)).” left out
Target sequence in this assay (P49841 whole entry): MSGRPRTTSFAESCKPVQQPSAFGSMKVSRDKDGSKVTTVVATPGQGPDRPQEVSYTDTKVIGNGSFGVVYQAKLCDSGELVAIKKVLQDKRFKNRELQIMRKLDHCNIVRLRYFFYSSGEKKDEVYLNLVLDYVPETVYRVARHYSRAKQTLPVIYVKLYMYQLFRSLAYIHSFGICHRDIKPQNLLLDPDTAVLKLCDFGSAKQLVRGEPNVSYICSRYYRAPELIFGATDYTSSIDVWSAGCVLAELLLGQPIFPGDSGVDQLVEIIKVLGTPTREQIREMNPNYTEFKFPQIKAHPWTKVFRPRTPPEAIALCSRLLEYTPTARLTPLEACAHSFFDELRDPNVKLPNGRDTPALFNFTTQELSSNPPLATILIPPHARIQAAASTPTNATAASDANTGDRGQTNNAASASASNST

CDK5 = details: cited from earlier work
CDK2 [5] = target: T3, CDK2; details: cited from earlier work
359 wild-type kinases = test system: 359 wild-type kinases; parameters: method as in PMID 19053485; details: kinome-wide screen; cited from earlier work

SMILES	ΔTm at 10 µM (GSK3B [1])	stabilization in CETSA MS (CDK16 and GSK3)	ΔTm at 10 µM (CDK16)	ΔTm at 10 µM (CDK2 [2])	EC50 (CDK16/Cyclin Y)	Kinases with shifts > 5°C [3]	EC50 (GSK3B [4])	affinity for CDK5 (CDK5)	affinity for CDK2 (CDK2 [5])	number of kinases targeted of 359 wild-type kinases (359 wild-type kinases)
COC(=O)c1cc(Nc2ccnc(Nc3ccc(CNC(=O)OC(C)(C)C)cc3)n2)[nH]n1 [21h, methyl 5-((2-((4-(((tert-butoxycarbonyl)amino)methyl)phenyl)amino)pyrimidin-4-yl)amino)-1H-pyrazole-3-carboxylate]	6 ± 0.3 °C	stabilization of CDK16 and GSK3	5.1 ± 0.1 °C	2.5 ± 0.2 °C	0.391 µM	4–9				
COC(=O)c1cc(Nc2ccnc(Nc3ccc(CC#N)cc3)n2)[nH]n1 [21f, methyl 5-((2-((4-(cyanomethyl)phenyl)amino)pyrimidin-4-yl)amino)-1H-pyrazole-3-carboxylate]	12.3 ± 0.7 °C		5.3 °C	7.8 °C	0.112 ± 0.0086 µM	27				
COC(=O)c1cc(Nc2ccnc(Nc3ccc(CCN)cc3)n2)n[nH]1 [compound 24, methyl 3-((2-((4-(2-aminoethyl)phenyl)amino)pyrimidin-4-yl)amino)-1H-pyrazole-5-carboxylate]	9.5 °C		2.4 ± 0.1 °C	3 °C	2.83 ± 0.544 µM		18 µM			
COC(=O)c1cc(Nc2ccnc(NCCCCCCNC(=O)OC(C)(C)C)n2)[nH]n1 [21e, methyl 5-((2-((6-((tert-butoxycarbonyl)amino)hexyl)amino)pyrimidin-4-yl)amino)-1H-pyrazole-3-carboxylate]	8.6 ± 0.1 °C	stabilization of CDK16 and GSK3	8.5 °C	6.5 ± 0.1 °C	0.152 µM					
COC(=O)c1cc(Nc2ccnc(Nc3cccc(CCNC(=O)OC(C)(C)C)c3)n2)[nH]n1 [21b, methyl 5-((2-((3-(2-((tert-butoxycarbonyl)amino)ethyl)phenyl)amino)pyrimidin-4-yl)amino)-1H-pyrazole-3-carboxylate]	8.6 ± 0.2 °C	stabilization of CDK16 and GSK3	4.9 °C	4.6 ± 0.1 °C	0.688 ± 0.0225 µM					
Cc1cc(Nc2cc(N3CCN(C)CC3)nc(Sc3ccc(NC(=O)C4CC4)cc3)n2)[nH]n1 [tozasertib]								no affinity	no affinity	
CC(C)(C)OC(=O)NCCCCCNc1nccc(Nc2cc(C(=O)OC(C)(C)C)[nH]n2)n1 [43b, tert-butyl 3-((2-((5-((tert-butoxycarbonyl)amino)pentyl)amino)pyrimidin-4-yl)amino)-1H-pyrazole-5-carboxylate]	6.6 ± 0.1 °C		9.3 ± 0.1 °C	6.5 ± 0.1 °C	0.076 ± 0.0009 µM	7–10				
N#CCc1ccc(Nc2nc(Nc3cc(C4CC4)[nH]n3)c3ccccc3n2)cc1 [compound 3]										317
